Consider eight molecules from PubChem BioAssay (NCI).

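A five-concentration, 48-hour dose response in 96-well plates underlies each endpoint, interpolated linearly between surrounding concentrations. The concentration for full growth arrest is given as TGI.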

Some test systems named below: UO-31 renal; SW-620 colon; LOX IMVI melanoma; A549 NSCLC; NCI-H226 lung; TK-10 renal; HOP-62 NSCLC; SN12C renal; UACC-62 melanoma; U251 CNS; SR leukemia; HT29 colon; HCT-116 colon; SF-295 CNS; MDA-MB-435; CAKI-1 renal; A498 renal; DU-145 prostate; PC-3 prostate; MDA-N.
Experiment in all cases: NCI anticancer screen, dose series, 48 h

As for `Cn1c(=O)c2c(ncn2CCCCn2ccnc2[N+](=O)[O-])n(C)c1=O`, the TGI with UO-31 renal, in the experiment with SW-620 colon, with LOX IMVI melanoma, with A549 NSCLC, in the experiment on NCI-H226 lung and with TK-10 renal was > 100 µM throughout. Besides, the TGI in the experiment on HOP-62 NSCLC, with SN12C renal, in the experiment on UACC-62 melanoma, in the experiment on U251 CNS, in the experiment on SR leukemia and in the experiment with HT29 colon was > 100 µM in each case. The TGI with HCT-116 colon and with SF-295 CNS was > 100 µM each time.

Take `CC(C)=CCC/C(C)=C/CC/C(C)=C/[C@@H]1[C@@H](CO)[C@]1(C)CC/C=C(\C)CCC=C(C)C`: the TGI in the experiment with MDA-MB-435 was > 100 µM; in the experiment on UO-31 renal, 34.3 µM; in the experiment on SW-620 colon, 66.9 µM; with CAKI-1 renal, > 100 µM; in the experiment with LOX IMVI melanoma it was 23.8 µM; in the experiment with A549 NSCLC, > 100 µM. In addition, the TGI with NCI-H226 lung was 44.5 µM; in the experiment on TK-10 renal, > 100 µM; with A498 renal, > 100 µM; in the experiment on DU-145 prostate, > 100 µM; in the experiment on PC-3 prostate it was 56.5 µM; with HOP-62 NSCLC, > 100 µM. Further, the TGI is > 100 µM with SN12C renal; > 100 µM in the experiment with U251 CNS; 55 µM in the experiment with SR leukemia; > 100 µM in the experiment on HT29 colon; > 100 µM in the experiment on HCT-116 colon; > 100 µM with SF-295 CNS.

In the case of `COC1=C(C)C(=O)C2C(C1=O)C(c1ccc(OC)c(OC)c1)[C@H]2C` (stereo partly specified), the TGI in the experiment on UO-31 renal, with SW-620 colon, in the experiment with CAKI-1 renal, with LOX IMVI melanoma, with A549 NSCLC and with NCI-H226 lung was > 100 µM each time. The TGI with TK-10 renal, with A498 renal, with HOP-62 NSCLC, in the experiment on UACC-62 melanoma, in the experiment with U251 CNS and in the experiment on SR leukemia was > 100 µM throughout. The TGI in the experiment on HT29 colon and in the experiment with SF-295 CNS was > 100 µM in each case.

On to `CC(C)=C1C(=O)C[C@]2(C)C/C=C(\C)CC/C=C(\C)CC[C@@H]12`, for which the TGI in the experiment with MDA-MB-435 is 20 µM; in the experiment with UO-31 renal, 15.1 µM; with SW-620 colon it was 17.3 µM; with CAKI-1 renal, 15.1 µM; in the experiment with A549 NSCLC it was > 50 µM; with NCI-H226 lung, 16 µM. For the same molecule, the TGI was 22.2 µM in the experiment on TK-10 renal; 47.9 µM in the experiment with A498 renal; > 50 µM in the experiment with DU-145 prostate; > 50 µM in the experiment with PC-3 prostate; 18.5 µM with HOP-62 NSCLC; 17.3 µM in the experiment with SN12C renal. The TGI turned out to be 15.3 µM in the experiment with UACC-62 melanoma; 14.8 µM with U251 CNS; 28.3 µM with SR leukemia; 16.4 µM in the experiment on HT29 colon; 15.9 µM with HCT-116 colon; 31.3 µM in the experiment on SF-295 CNS.

For the molecule `C/C(=N\N=C(\N)OB(F)F)c1ccccn1`, the TGI in the experiment on MDA-MB-435, in the experiment with UO-31 renal, in the experiment on SW-620 colon, with CAKI-1 renal, in the experiment with LOX IMVI melanoma and with A549 NSCLC was > 100 µM in each case. Moreover, the TGI in the experiment with NCI-H226 lung, with TK-10 renal, in the experiment on A498 renal, with MDA-N, with DU-145 prostate and in the experiment on HOP-62 NSCLC was > 100 µM each time. Moreover, the TGI in the experiment with SN12C renal, in the experiment with UACC-62 melanoma, with U251 CNS, in the experiment on SR leukemia, with HT29 colon and in the experiment with HCT-116 colon was > 100 µM each time. Further, in the experiment on SF-295 CNS, the TGI was > 100 µM.

Consider `CC1=NN(c2cccc(Cl)c2)C(=N/c2nc3ccccc3s2)/C1=C\C=C\c1ccccc1`, for which the TGI in the experiment with MDA-MB-435, in the experiment with UO-31 renal, with SW-620 colon, with CAKI-1 renal, in the experiment with LOX IMVI melanoma and in the experiment on NCI-H226 lung was > 100 µM each time. Also, the TGI with TK-10 renal is > 100 µM; in the experiment with A498 renal, 75.5 µM; in the experiment on MDA-N, > 100 µM; with DU-145 prostate, > 100 µM; with HOP-62 NSCLC, > 100 µM; with SR leukemia, 25.9 µM. The TGI in the experiment on HT29 colon, with HCT-116 colon and with SF-295 CNS was > 100 µM each time.

On to `O=C(O)C(F)(OC(F)(F)C(F)(F)C(F)(F)F)C(F)(F)F` (stereo unspecified), for which the TGI in the experiment with MDA-MB-435, with UO-31 renal, in the experiment with SW-620 colon, in the experiment with CAKI-1 renal, in the experiment with LOX IMVI melanoma and in the experiment with A549 NSCLC was > 100 µM each time. Further, the TGI in the experiment with NCI-H226 lung, in the experiment on TK-10 renal, in the experiment with A498 renal, in the experiment with DU-145 prostate, in the experiment on PC-3 prostate and in the experiment with HOP-62 NSCLC was > 100 µM in each case. Also, the TGI in the experiment on SN12C renal, in the experiment with UACC-62 melanoma, in the experiment with U251 CNS, in the experiment on HT29 colon, with HCT-116 colon and in the experiment on SF-295 CNS was > 100 µM each time.

`Nn1c(-c2ccccc2Nc2ccccc2-c2n[nH]c(=S)n2N)n[nH]c1=S`: the TGI with MDA-MB-435, with UO-31 renal, in the experiment on SW-620 colon, in the experiment with LOX IMVI melanoma, in the experiment on NCI-H226 lung and in the experiment with TK-10 renal was > 50 µM in each case. Further, the TGI in the experiment with DU-145 prostate, with PC-3 prostate, in the experiment with HOP-62 NSCLC, with UACC-62 melanoma, with U251 CNS and in the experiment with SR leukemia was > 50 µM in each case. Besides, the TGI in the experiment on HT29 colon, in the experiment on HCT-116 colon and with SF-295 CNS was > 50 µM each time.
